Where a SMILES comes first, the peptide text is derived from it.
Tests used:
hRXRα-LBD homodimer = experiment: hydrogen deuterium exchange mass spectrometry; format: binding, human
humans = details: cited from earlier work
[1] = biological target: T1, hRXRα-LBD:9cRA homodimers (Homo sapiens, UniProt P19793); experiment: isothermal titration calorimetry; details: 37 °C, buffer C pH 8.0, single-site binding model
T1 sequence (P19793 223-462): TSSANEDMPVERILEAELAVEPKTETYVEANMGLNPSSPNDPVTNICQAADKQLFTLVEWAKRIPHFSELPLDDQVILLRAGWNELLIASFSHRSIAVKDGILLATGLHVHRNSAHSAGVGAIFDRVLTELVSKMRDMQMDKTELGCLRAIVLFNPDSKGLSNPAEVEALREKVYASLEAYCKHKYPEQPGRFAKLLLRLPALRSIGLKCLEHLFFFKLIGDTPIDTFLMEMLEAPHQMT

[2] = biological target: GRIP-1 (NCOA2/TIF2) NR-box II coactivator peptide, 13-mer (UniProt Q15596); experiment: ITC; details: pH 8.0, 25 °C, 50 mM NaCl, buffer C: 10 mM Tris

CC1=C(/C=C/C(C)=C\C=C\C(C)=C\C(=O)O)C(C)(C)CCC1 [9cRA, 9-cis-retinoic acid]
reduction in deuterium incorporation, peptide L419-F438 (H11) (hRXRα-LBD homodimer; following 15 s of deuterium incorporation, 9cRA alone): > 20%
rate of deuterium incorporation, H12 region (hRXRα-LBD homodimer; hRXRα-LBD:9cRA versus apo-hRXRα-LBD, GRIP-1 added to hRXRα-LBD:9cRA): unaltered rates of incorporation
change in deuterium incorporation of peptides around the ligand binding pocket (hRXRα-LBD homodimer; relative to apo-hRXRα-LBD, upon 9cRA binding): 10–37%
reduction in deuterium incorporation, peptide L301-L308 (H4) (hRXRα-LBD homodimer; text: upon the addition of GRIP-1 versus in the presence of 9cRA alone): 12%
toxicity (humans; oral administration to humans): displays significant toxicity with oral administration to humans

CC[C@H](C)[C@H](NC(=O)[C@H](CCCCN)NC(=O)[C@H](Cc1c[nH]cn1)NC(=O)[C@@H](N)CCCCN)C(=O)N[C@@H](CC(C)C)C(=O)N[C@@H](Cc1c[nH]cn1)C(=O)N[C@@H](CCCNC(=N)N)C(=O)N[C@@H](CC(C)C)C(=O)N[C@@H](CC(C)C)C(=O)N[C@@H](CCC(N)=O)C(=O)N[C@@H](CC(=O)O)C(=O)N[C@@H](CO)C(=O)N[C@@H](CO)C(=O)O [GRIP-1] (H-KHKILHRLLQDSS-OH)
Kd [1]: 1000 ± 50 nM

C=C(c1ccc(C(=O)O)cc1)c1cc2c(cc1C)C(C)(C)CCC2(C)C [Targretin]
dose limiting toxicities compared with 9cRA (humans; oral treatment of cutaneous T-cell lymphoma): significantly fewer dose limiting toxicities than 9cRA

Retinoid X receptor alpha ligand-binding domain, homodimer loaded with 9-cis-retinoic acid (hRXRalpha-LBD:9cRA)
ΔH [2]: -9.15 kcal/mol

Source: publication PMC3081989 (Biochemistry, 2010)
